Tests used:
[1] = system: human MDA-MB-231 breast cancer cells; test: Cell viability (Alamar Blue) antiproliferative assay in MDA-MB-231 cells; type: cell-based; settings: mean ± SEM
Procedure: (§1) The human breast carcinoma cell line MCF-7, was purchased from the European Collection of Animal Cell Cultures (ECACC) and was cultured in Eagle’s minimum essential medium with 10% fetal bovine serum, 2 mM L-glutamine and 100 μg/mL penicillin/streptomycin. The medium was supplemented with 1% non-essential amino acids. The human breast carcinoma cell line MDA-MB-231 was purchased from the European Collection of Animal Cell Cultures (ECACC). MDA-MB-231 cells were maintained in Dulbecco’s modified Eagle’s medium (DMEM) supplemeted with 10% (v/v) fetal bovine serum, 2 mM L-glutamine and 100 μg/mL penicillin/streptomycin (complete medium). All media contained 100 U/mL penicillin and 100 μg/mL streptomycin. Triple negative breast cancer Hs578T cells and its invasive variant Hs578Ts(i)8 were obtained as a kind gift from Dr. Susan McDonnell, School of Chemical and Bioprocess Engineering, University College Dublin and were cultured in Dulbecco’s Modified Eagle’s Media (DMEM) with GlutaMAX^TM-I, with the same supplement as for MDA-MB-231 cells in the absence of non-essential amino acids. HEK-293T normal epithelial embryonic kidney cells were cultured in Dulbecco’s Modified Eagle’s Medium (DMEM) with GlutaMAX^TM-I in the absence of non-essential amino acids. K562 and HL-60 cells were originally obtained from the European Collection of Cell Cultures (Salisbury, UK).The K562 cells were derived from a patient in the blast crisis stage of CML HL-60 cells were derive from a patient with acute myeloid leukaemia. Cells were cultured in RPMI-1640 Glutamax medium supplemented with 10% FCS media, and 100 μg/mL penicillin/streptomycin. Cells were maintained at 37 °C in 5% CO2 in a humidified incubator. All cells were sub-cultured three times/week (adherent cells by trypsinisation).
(§2) Cells were seeded at a density of 5 × 10^3 cells/well (MCF-7), in triplicate in 96-well plates. After 24 h, cells were then treated with either medium alone, vehicle [1% ethanol (v/v)] or with serial dilutions of CA-4 or β-lactam analogue. Cell viability for MCF-7 and MDA-MB-231 was analysed using the Alamar Blue assay (Invitrogen Corp, Thermo Fisher Scientific, 168 Third Avenue, Waltham, MA, USA) according to the manufacturer’s instructions. After 72 h, Alamar Blue [10% (v/v)] was added to each well and plates were incubated for 3–5 h at 37 °C in the dark. Fluorescence was read using a 96-well fluorimeter with excitation at 530 nm and emission at 590 nm. Results were expressed as percentage viability relative to vehicle control (100%). Dose response curves were plotted and IC50 values (concentration of drug resulting in 50% reduction in cell survival) were obtained using the commercial software package Prism (GraphPad Software, Inc., 2365 Northside, Suite 560, San Diego, CA, USA). Experiments were performed in triplicate on at least three separate occasions.

[2] = system: human MCF-7 breast cancer cells; test: Cell viability (Alamar Blue) antiproliferative assay in MCF-7 cells; type: cell-based; settings: Homo sapiens, MCF7, 72 h, human MCF-7 breast cancer cells; 72 h; mean ± SEM; read-out: Antiproliferative Activity IC50
Procedure: as §1, §2

MCF-7 cells = test: Lactate dehydrogenase (LDH) assay for cytotoxicity; type: cell-based; settings: Homo sapiens, MCF7, 72 h, read-out: cell death (LDH assay)
Procedure: Cytotoxicity was determined using the CytoTox 96 non-radioactive cytotoxicity assay (Promega Corporation; 2800 Woods Hollow Road, Madison, WI, USA) following the manufacturer’s protocol. Briefly, MCF-7 cells were seeded in 96-well plates, incubated for 24 hr and then treated with test compounds (7d, 7h, 7i, 7q, 7r, 7u, 7t, 10d, 10f, 12) as described in the cell viability assay above. After 72 h, 20 μL of ‘lysis solution (10X)’ was added to control wells and the plate was incubated for a further 1 hr to ensure 100% death. 50 μL of supernatant was carefully removed from each well and transferred to a new 96-well plate. 50 μL of reconstituted ‘substrate mix’ was added and the plate was placed in the dark at room temperature for 30 min. After this period, 50 μL of ‘stop solution’ was added to each well and the absorbance was read at a wavelength of 490 nm using a Dynatech MR5000 plate reader. The percentage cell death at 10 μM was calculated.

purified bovine tubulin = target: T1, purified bovine tubulin (Bos taurus, UniProt P81947+Q6B856); test: Tubulin polymerization assay; type: biochemical; settings: 10 μM; for vmax of tubulin polymerization: absorbance at 340 nm, 37 °C
T1 construct: Purified (>99%) bovine brain tubulin (3 mg/mL); purchased Cytoskeleton Inc. BK006; host or cells: bovine brain (tissue-purified)
Procedure: The assembly of purified bovine tubulin was monitored using a kit, BK006, purchased from Cytoskeleton Inc., 1830 S Acoma St, Denver, CO, 80223, USA.. The assay was carried out in accordance with the manufacturer’s instructions in the tubulin polymerisation assay kit manual using the standard assay conditions. The values reported represent the average values from two independent assays. Purified (>99%) bovine brain tubulin (3 mg/mL) in a buffer consisting of 80 mM PIPES (pH 6.9), 0.5 mM EGTA, 2 mM MgCl2, 1 mM GTP and 10% glycerol was incubated at 37 °C in the presence of either vehicle (2% (v/v) ddH2O) or compounds 7h, 7i, 7s, 7t (initially 10 µM in EtOH); CA-4 and Paclitaxel were used as controls. Light is scattered proportionally to the concentration of polymerised microtubules in the assay. Therefore, tubulin assembly was monitored turbidimetrically at 340 nm at 37 °C in a Spectramax 340 PC spectrophotometer (Molecular Devices, 3860 N 1st St, San Jose, CA, USA). The absorbance was measured at 30 s intervals for 60 min.

NCI 60 cell line panel = test: NCI60 cell line screen (SRB assay), whole panel or sub-panels; type: cell-based; settings: mean over the total NCI 60 cell line panel
From the text: The results are summarized in Tables S3–S5, Supplementary Information.
Table S5: NCI 60 cell line mean screening results for selected compounds NCI Ref. Compound GI50 TGI LC50 […]
a GI50 and LC50 are the mean concentrations required to inhibit the growth and kill 50 % of the cells over the total NCI 60 cell line panel in the assay respectively. […]
over the total NCI 60 cell line panel.

[3] = system: microtubule network of MCF-7 cells; test: Immunofluorescence microscopy; type: cell-based, human; settings: 1 μM, 16 h
Procedure: Confocal microscopy was used to study the effects of drug treatment on MCF-7 cytoskeleton. For immunofluorescence, MCF-7 cells were seeded at 1 × 10^5 cells/mL on eight chamber glass slides (BD Biosciences, 2350 Qume Dr, San Jose, CA, USA). Cells were either untreated or treated with vehicle [1% ethanol (v/v)], paclitaxel (1 μM), combretastatin A-4 (100 nM) or compound 7s (100 nM) for 16 h. Following treatment cells were gently washed in PBS, fixed for 20 min with 4% paraformaldehyde in PBS and permeabilised in 0.5% Triton X-100. Following washes in PBS containing 0.1% Tween (PBST), cells were blocked in 5% bovine serum albumin diluted in PBST. Cells were then incubated with mouse monoclonal anti-α-tubulin−FITC antibody (clone DM1A) (Sigma-Aldrich, 2033 Westport Center Dr, St. Louis, MO, USA) (1:100) for 2 h at room temperature. Following washes in PBST, cells were incubated with Alexa Fluor 488 dye (1:450) for 1 h at room temperature. Following washes in PBST, the cells were mounted in Ultra Cruz Mounting Media (Santa Cruz Biotechnology Inc., 10410 Finnell Street, Dallas, TX, USA) containing 4,6-diamino-2-phenolindol dihydrochloride (DAPI). Images were captured by Leica SP8 confocal microscopy with Leica application suite X software (Leica Microsystems CMS GmbH Am Friedensplatz 3 D-68165 Mannheim, Germany). All images in each experiment were collected on the same day using identical parameters. Experiments were performed on three independent occasions.

T1 sequence (Q6B856 whole entry): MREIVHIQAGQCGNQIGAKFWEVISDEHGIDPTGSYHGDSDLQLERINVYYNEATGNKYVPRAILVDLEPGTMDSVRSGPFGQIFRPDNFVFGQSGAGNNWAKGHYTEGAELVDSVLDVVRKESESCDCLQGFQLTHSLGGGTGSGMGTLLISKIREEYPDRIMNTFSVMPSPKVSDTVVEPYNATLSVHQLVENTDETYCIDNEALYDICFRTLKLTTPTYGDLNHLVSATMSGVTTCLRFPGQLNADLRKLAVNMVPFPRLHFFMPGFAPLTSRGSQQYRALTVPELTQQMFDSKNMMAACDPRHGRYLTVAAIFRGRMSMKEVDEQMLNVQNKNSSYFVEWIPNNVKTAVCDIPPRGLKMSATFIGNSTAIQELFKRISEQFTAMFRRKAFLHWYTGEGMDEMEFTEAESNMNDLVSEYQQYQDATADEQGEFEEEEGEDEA
T1 sequence (P81947 whole entry): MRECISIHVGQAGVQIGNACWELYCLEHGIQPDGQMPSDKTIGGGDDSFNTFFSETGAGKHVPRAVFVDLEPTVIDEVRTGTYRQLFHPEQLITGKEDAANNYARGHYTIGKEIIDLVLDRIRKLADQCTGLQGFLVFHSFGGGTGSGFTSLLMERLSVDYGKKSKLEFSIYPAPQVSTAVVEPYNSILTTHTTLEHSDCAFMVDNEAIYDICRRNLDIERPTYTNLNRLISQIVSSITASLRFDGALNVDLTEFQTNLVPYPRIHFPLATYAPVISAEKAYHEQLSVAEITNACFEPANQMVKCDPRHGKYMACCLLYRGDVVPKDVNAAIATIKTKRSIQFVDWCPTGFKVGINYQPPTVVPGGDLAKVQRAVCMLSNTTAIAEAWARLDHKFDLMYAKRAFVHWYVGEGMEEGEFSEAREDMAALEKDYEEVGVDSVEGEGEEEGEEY

| IC50 [1] [µM] | IC50 [2] [µM] | Compound | cytotoxicity at 10 µM (MCF-7 cells) [%] | other results |
| --- | --- | --- | --- | --- |
| 0.191 ± 0.016 | 0.69 ± 0.11 | C=CC1C(=O)N(c2cc(OC)c(OC)c(OC)c2)C1c1ccc(Cl)cc1 (centres unmarked) [Compound 7b, 4-(4-Chlorophenyl)-1-(3,4,5-trimethoxyphenyl)-3-vinylazetidin-2-one] | – | melting point: 104 °C |
| – | 3.83 ± 0.53 | C=CC1C(=O)N(c2cc(OC)c(OC)c(OC)c2)C1c1ccc([N+](=O)[O-])cc1 (centres unmarked) [Compound 7d, 4-(4-Nitrophenyl)-1-(3,4,5-trimethoxyphenyl)-3-vinylazetidin-2-one] | 7.2 | – |
| 0.061 ± 0.007 | 0.037 ± 0.0033 | C=CC1C(=O)N(c2cc(OC)c(OC)c(OC)c2)C1c1ccc(OCC)cc1 (centres unmarked) [Compound 7i, 4-(4-Ethoxyphenyl)-1-(3,4,5-trimethoxyphenyl)-3-vinylazetidin-2-one] | 8.5 | vmax of tubulin polymerization (purified bovine tubulin): 3.84 mOD/min; fold reduction in vmax of tubulin polymerization (purified bovine tubulin; with reference to ethanol control): 2.19 fold |
| 0.077 ± 0.009 | 0.068 ± 0.01 | C=CC1C(=O)N(c2cc(OC)c(OC)c(OC)c2)C1c1ccc2ccccc2c1 (centres unmarked) [Compound 7n, 4-Naphthalen-2-yl-1-(3,4,5-trimethoxyphenyl)-3-vinylazetidin-2-one] | – | melting point: 145 to 146 °C |
| – | 6.25 ± 5.05 | C=CC1C(=O)N(c2cc(OC)c(OC)c(OC)c2)C1c1ccc(C#N)cc1 (centres unmarked) [Compound 7q, 4-[4-Oxo-1-(3,4,5-trimethoxyphenyl)-3-vinyl-azetidin-2-yl]benzonitrile] | 4.5 | – |
| – | 0.17 ± 0.07 | C=CC1C(=O)N(c2cc(OC)cc(OC)c2)C1c1ccc(OC)cc1 (centres unmarked) [Compound 7u, 1-(3,5-Dimethoxyphenyl)-4-(4-methoxyphenyl)-3-vinylazetidin-2-one] | 3.5 | – |
| – | 0.544 ± 0.31 | COc1ccc(C2C(C(C)(C)O)C(=O)N2c2cc(OC)c(OC)c(OC)c2)cc1O (centres unmarked) [Compound 10d, 4-(3-Hydroxy-4-methoxyphenyl)-3-(1-hydroxy-1-methylethyl)-1-(3,4,5-trimethoxy-phenyl)azetidin-2-one] | 9.8 | – |
| – | 0.046 ± 0.041 | COc1ccc(C2C(C(O)C=Cc3ccccc3)C(=O)N2c2cc(OC)c(OC)c(OC)c2)cc1O (centres unmarked) [Compound 10f, 4-(3-Hydroxy-4-methoxy-phenyl)-3-(1-hydroxy-3-phenyl-allyl)-1-(3,4,5-trimethoxy-phenyl)-azetidin-2-one] | 7.6 | – |
| – | – | CC(=O)O[C@H]1C(=O)[C@@]2(C)[C@H]([C@H](OC(=O)c3ccccc3)[C@]3(O)C[C@H](OC(=O)[C@H](O)[C@@H](NC(=O)c4ccccc4)c4ccccc4)C(C)=C1C3(C)C)[C@]1(OC(C)=O)CO[C@@H]1C[C@@H]2O [paclitaxel, reference compound] | – | vmax of tubulin polymerization (purified bovine tubulin): 89.4 mOD/min; effect on microtubule network [3]: Formation of microtubule bundles and pseudo asters |

| Compound | IC50 [1] [µM] | IC50 [2] [µM] | cytotoxicity at 10 µM (MCF-7 cells) [%] | other results |
| --- | --- | --- | --- | --- |
| C=CC1C(=O)N(c2cc(OC)c(OC)c(OC)c2)C1c1ccc(SC)cc1 (centres unmarked) [Compound 7r, 4-(4-Methylsulfanylphenyl)-1-(3,4,5-trimethoxyphenyl)-3-vinylazetidin-2-one] | – | 0.051 ± 0.001 | 4.5 | – |
| CC=C1C(=O)N(c2cc(OC)c(OC)c(OC)c2)C1c1ccc(OC)c(O)c1 (centres unmarked) [Compound 12, 3-Ethylidene-4-(3-hydroxy-4-methoxy-phenyl)-1-(3,4,5-trimethoxy-phenyl)-azetidin-2-one] | – | 0.502 ± 0.212 | 8.4 | – |
| COc1ccc(C2CC(=O)N2c2cc(OC)c(OC)c(OC)c2)cc1OP(=O)(O)O (centres unmarked) [Compound 17a, 2-Methoxy-5-(1-(3,4,5-trimethoxyphenyl)-4-oxoazetidin-2-yl)phenyl dihydrogen phosphate] | 0.03 ± 0.004 | 0.022 ± 0.0015 | – | TGI (mean) (NCI 60 cell line panel): 39.8 µM; GI50 (NCI 60 cell line panel; read-out: GI50 (mean)): 0.141 µM; CC50 (NCI 60 cell line panel; read-out: LC50 (mean)): 87.1 µM |

Source: publication PMC6630832, “3-Vinylazetidin-2-Ones: Synthesis, Antiproliferative and Tubulin Destabilizing Activity in MCF-7 and MDA-MB-231 Breast Cancer Cells” (Pharmaceuticals, 2019)
